# From ChEMBL document CHEMBL1201862, “PubChem BioAssay data set” (2004)
# The source made the active and inactive calls.
# Key:
# Protein skinhead-1 = target: T1, Protein skinhead-1 (Caenorhabditis elegans, UniProt P34707); assay type: functional
# T1 sequence (P34707 whole entry): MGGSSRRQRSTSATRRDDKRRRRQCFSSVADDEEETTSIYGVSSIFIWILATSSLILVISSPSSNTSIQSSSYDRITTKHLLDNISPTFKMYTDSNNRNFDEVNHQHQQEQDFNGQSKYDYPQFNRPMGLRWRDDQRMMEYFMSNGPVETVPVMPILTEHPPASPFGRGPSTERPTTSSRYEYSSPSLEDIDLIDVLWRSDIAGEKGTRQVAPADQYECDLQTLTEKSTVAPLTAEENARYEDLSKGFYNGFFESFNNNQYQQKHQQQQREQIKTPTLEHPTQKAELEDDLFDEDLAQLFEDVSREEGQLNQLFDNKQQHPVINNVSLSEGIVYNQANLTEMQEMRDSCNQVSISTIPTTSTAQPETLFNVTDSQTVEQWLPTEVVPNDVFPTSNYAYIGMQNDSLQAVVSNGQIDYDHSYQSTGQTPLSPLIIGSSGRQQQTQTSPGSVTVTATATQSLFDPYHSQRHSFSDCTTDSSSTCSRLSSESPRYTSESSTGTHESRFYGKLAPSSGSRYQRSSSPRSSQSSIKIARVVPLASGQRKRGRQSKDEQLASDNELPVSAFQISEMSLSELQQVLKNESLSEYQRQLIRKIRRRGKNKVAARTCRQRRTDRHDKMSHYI
# [1] = THP-1 cell cytotoxicity, dose response, cytotoxicity control for non-replicating M. tuberculosis project (AID 489025); assay type: functional
# [2] = target: T2, Heat shock factor protein 1 (Mus musculus, UniProt P38532); experiment: decrease of HSF1-responsive luciferase luminescence – cell-based, NIH3T3, dose retest, confirmation (AID 2382); assay type: functional;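 also: NIH3T3 fibroblasts with HSF1-driven luciferase reporter stressed by proteasome inhibitor MG132; luminescence from HSF1-driven luciferase expression after 8 hours of MG132 stress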
# T2 sequence (P38532 whole entry): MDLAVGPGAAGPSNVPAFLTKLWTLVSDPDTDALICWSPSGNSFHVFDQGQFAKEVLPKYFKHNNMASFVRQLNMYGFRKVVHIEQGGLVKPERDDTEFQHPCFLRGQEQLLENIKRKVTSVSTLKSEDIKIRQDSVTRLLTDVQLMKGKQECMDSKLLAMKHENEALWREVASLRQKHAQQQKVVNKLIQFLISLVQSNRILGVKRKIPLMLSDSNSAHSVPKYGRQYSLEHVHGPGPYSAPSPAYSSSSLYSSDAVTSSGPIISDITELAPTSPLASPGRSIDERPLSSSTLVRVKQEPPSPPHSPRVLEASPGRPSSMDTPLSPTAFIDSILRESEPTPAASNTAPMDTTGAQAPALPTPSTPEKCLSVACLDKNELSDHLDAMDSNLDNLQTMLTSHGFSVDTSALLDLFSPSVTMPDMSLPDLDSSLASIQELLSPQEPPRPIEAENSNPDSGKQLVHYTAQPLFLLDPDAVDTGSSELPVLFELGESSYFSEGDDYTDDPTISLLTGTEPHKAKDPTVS
# [3] = Vero E6 cell cytotoxicity, dose response, cytotoxicity control for non-replicating M. tuberculosis project, secondary assay (AID 492998); assay type: functional, VeroE6; details: Vero C1008
# [4] = viability loss in Vero cells – cytotoxicity control for Vif-APOBEC3G degradation inhibitor project, dose response (AID 1117358); assay type: functional; details: Vero
# [5] = target: T3, Aryl hydrocarbon receptor (Homo sapiens, UniProt P35869); experiment: Luminescence-based cell-based high throughput dose response assay for activators of the Aryl Hydrocarbon Receptor (AHR). [Related pubchem assays: 2796 (Primary screen (AHR activators in singlicate)), 2845 (Confirmation screen (AHR activators in triplicate)), 434939 (Counterscreen (PXR activators in triplicate)), 2804 (Summary (AHR activators))]; assay type: ADME
# T3 sequence (P35869 whole entry): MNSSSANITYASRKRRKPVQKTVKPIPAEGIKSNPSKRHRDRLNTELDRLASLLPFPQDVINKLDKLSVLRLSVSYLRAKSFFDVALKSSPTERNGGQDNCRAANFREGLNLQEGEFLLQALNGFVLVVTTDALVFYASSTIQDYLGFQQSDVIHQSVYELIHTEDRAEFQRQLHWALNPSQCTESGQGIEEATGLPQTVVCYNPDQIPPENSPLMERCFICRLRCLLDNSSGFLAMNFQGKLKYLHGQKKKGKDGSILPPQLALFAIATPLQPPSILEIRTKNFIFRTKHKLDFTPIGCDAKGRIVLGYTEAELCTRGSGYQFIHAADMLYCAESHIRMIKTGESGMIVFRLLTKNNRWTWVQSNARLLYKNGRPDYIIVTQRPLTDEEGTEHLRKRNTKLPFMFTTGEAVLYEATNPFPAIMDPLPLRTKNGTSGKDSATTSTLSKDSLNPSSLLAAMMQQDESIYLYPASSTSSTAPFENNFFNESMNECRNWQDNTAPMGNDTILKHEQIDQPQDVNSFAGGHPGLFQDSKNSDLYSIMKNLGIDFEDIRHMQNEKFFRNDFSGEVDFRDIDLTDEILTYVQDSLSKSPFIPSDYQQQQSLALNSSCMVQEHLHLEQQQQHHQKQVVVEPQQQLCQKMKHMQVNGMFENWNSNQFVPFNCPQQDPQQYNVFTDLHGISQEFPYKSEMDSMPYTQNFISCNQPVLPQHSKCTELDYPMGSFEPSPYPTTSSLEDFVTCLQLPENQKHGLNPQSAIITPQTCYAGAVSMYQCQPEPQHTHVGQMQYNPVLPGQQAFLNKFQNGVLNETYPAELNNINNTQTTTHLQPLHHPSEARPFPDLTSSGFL
# [6] = target: Protein-tyrosine kinase 2-beta (Homo sapiens, UniProt Q14289);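 also: potency of inhibitors of PYK2 kinase phosphorylation of poly-GT substrate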
# Sequence of Protein-tyrosine kinase 2-beta (Q14289 whole entry): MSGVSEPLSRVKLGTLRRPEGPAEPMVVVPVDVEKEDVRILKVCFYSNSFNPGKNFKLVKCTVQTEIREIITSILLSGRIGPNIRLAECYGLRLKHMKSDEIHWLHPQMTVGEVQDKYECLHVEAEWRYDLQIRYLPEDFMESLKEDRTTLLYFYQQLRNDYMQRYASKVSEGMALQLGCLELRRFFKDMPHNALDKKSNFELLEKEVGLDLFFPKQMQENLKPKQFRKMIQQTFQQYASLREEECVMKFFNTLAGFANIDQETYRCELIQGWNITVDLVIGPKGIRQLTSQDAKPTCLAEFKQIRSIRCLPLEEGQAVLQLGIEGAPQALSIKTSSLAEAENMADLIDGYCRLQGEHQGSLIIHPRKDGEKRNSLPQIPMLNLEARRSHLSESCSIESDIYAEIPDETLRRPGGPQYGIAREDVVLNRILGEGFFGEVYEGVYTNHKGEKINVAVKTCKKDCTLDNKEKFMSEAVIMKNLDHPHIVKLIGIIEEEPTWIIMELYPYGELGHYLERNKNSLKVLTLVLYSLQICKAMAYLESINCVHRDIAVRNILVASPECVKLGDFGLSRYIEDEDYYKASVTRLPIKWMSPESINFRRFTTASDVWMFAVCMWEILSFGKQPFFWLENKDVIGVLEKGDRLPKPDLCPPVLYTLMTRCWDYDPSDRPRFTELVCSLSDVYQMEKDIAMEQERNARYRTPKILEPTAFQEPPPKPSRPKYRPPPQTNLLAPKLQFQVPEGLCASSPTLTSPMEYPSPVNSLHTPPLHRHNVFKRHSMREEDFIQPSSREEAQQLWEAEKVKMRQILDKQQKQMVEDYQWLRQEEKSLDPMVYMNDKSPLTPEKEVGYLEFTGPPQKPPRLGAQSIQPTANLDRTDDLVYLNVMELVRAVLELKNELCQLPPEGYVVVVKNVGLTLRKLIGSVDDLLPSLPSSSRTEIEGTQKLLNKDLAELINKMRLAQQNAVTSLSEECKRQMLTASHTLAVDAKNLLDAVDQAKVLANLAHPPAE
# [7] = target: E3 ubiquitin-protein ligase Mdm2 (Homo sapiens, UniProt Q00987); experiment: MDM2-luc reporter signal enhancers, multi-concentration potency testing, MDM2 ubiquitin-protein ligase inhibitor program, whole-cell format, luminescence detection, 384-well microplate (AID 1394); assay type: functional;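 also: MDM2 E3 inhibitors raise luminescence so EC50 is for signal enhancement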
# Sequence of E3 ubiquitin-protein ligase Mdm2 (Q00987 whole entry): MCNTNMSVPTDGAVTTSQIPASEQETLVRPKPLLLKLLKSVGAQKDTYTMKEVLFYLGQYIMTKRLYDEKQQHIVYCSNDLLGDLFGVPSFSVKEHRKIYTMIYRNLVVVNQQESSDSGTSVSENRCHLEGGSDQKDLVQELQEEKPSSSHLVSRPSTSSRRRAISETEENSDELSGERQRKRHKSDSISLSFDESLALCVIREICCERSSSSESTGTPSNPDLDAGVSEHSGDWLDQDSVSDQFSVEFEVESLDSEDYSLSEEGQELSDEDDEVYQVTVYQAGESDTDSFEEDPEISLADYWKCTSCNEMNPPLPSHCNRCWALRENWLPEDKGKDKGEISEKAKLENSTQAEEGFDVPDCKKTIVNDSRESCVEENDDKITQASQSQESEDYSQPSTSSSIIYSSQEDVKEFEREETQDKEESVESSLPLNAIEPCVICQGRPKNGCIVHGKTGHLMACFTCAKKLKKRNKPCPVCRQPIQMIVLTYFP
# Estrogen receptor = target: T4, Estrogen receptor (Homo sapiens, UniProt P03372);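 also: potency for inhibiting coactivator peptide recruitment to the receptor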
# T4 sequence (P03372 whole entry): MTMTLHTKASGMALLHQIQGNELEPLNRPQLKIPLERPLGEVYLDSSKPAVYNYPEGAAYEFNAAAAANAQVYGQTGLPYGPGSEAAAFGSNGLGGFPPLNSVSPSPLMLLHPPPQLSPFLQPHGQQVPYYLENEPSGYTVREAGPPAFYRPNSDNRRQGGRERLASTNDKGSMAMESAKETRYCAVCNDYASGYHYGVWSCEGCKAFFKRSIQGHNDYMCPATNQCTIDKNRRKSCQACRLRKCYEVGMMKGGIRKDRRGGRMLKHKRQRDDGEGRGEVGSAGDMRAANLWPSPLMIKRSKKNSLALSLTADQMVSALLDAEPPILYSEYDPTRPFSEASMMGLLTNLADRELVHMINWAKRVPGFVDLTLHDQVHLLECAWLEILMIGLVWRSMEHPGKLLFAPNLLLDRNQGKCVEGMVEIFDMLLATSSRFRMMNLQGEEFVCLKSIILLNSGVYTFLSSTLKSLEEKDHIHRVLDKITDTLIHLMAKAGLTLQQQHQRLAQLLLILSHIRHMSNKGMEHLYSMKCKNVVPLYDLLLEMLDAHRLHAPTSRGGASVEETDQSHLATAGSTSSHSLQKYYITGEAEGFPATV
# Estrogen receptor beta = Estrogen receptor beta (Homo sapiens, UniProt Q92731);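 also: recombinant ER-beta bound to coactivator SRC1 peptide in presence of estradiol agonist; inhibitors block coactivator peptide binding and lower the FRET signal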
# Sequence of Estrogen receptor beta (Q92731 whole entry): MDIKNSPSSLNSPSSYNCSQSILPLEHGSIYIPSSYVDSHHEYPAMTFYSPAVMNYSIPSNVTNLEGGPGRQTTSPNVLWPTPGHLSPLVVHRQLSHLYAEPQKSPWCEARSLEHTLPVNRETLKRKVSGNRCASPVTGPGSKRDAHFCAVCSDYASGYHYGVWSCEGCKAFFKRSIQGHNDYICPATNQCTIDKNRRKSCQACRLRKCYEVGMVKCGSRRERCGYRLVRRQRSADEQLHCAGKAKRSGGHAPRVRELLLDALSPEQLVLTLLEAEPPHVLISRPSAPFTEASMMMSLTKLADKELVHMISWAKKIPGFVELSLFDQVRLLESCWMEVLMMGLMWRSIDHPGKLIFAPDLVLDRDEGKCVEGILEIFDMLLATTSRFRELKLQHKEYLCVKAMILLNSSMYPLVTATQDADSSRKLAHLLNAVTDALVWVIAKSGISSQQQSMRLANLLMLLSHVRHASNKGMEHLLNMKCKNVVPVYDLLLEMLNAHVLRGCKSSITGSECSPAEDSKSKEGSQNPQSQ
# [8] = target: Glutathione-S-transferase (Schistosoma japonicum, UniProt Q26513); experiment: GST-antibody interaction or FRET quenching – biochemical, TR-FRET, artefact control for Vif-APOBEC3G degradation inhibitor project, dose response (AID 1117362); assay type: functional
# Sequence of Glutathione-S-transferase (Q26513 whole entry): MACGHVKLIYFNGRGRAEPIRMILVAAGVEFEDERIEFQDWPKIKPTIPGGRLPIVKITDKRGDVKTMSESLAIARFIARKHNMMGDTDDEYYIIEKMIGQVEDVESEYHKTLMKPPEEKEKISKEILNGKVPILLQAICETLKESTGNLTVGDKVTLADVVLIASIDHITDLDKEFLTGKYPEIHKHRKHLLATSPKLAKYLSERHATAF
# Genome polyprotein = Genome polyprotein (dengue virus type 2, UniProt P29990); experiment: flavivirus cap methylation enzyme inhibition – biochemical, confirmation dose response, primary screen (AID 588689); assay type: functional
# Sequence of Genome polyprotein (P29990 2492-3391 limits assumed): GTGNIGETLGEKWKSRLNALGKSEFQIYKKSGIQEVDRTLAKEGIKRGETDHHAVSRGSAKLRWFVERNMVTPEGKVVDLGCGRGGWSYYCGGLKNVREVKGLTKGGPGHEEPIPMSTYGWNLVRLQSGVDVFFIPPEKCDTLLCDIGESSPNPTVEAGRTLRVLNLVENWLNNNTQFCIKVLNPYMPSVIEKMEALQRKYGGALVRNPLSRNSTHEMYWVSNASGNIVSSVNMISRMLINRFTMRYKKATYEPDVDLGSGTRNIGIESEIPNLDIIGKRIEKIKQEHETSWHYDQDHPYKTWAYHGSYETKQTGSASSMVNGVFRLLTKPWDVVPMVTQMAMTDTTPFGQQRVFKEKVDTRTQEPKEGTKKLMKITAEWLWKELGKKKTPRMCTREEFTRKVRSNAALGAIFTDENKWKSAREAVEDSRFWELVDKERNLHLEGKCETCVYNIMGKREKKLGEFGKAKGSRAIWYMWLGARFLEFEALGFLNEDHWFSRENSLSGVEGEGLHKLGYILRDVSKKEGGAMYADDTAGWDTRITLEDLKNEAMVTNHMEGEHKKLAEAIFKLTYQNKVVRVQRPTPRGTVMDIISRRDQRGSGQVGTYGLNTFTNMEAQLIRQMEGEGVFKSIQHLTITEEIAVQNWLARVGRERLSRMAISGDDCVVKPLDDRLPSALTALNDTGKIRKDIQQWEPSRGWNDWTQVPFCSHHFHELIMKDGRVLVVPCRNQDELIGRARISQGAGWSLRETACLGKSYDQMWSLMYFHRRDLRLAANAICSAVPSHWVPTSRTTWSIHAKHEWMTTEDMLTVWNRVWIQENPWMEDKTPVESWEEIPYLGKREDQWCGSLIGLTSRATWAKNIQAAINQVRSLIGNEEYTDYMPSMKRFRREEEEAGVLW
compound,measurement,setting,value
CCN1C(C(=O)c2ccccc2)=C(O)c2ccccc2S1(=O)=O,IC50,Protein skinhead-1,> 100 µM (inactive)
same,CC50,[1],26.2 µM (active)
same,EC50,[2],> 195 µM (not active)
same,CC50,[3],19.2 µM (active)
same,CC50,[4],24.3 µM (active)
Cc1cnc(NC(=O)c2c(Cl)cnn2C)s1,EC50,[5],5.87 µM (active)
C=CCn1c(SCC(=O)N2CCCC2)nc2scc(-c3cccs3)c2c1=O,IC50,[6],> 69.5 µM (not active)
COc1ccc(Nc2nc(C(=O)N3CCc4ccccc4C3)cs2)cc1,EC50,[7],12.3 µM (not active)
Cc1ccc(S(=O)(=O)Cc2ccc(C(=O)N3CCC4(CC3)OCCO4)o2)cc1,IC50,Estrogen receptor,43 µM (not active)
same,IC50,Estrogen receptor beta,12.8 µM (active)
O=C1CC=C2C3CC4N(CCC45c4cc(O)c(O)cc4N1C25)CC3=CCBr (configuration not stated),IC50,[8],3.05 µM (active)
same,IC50,Genome polyprotein,31.5 µM (active)
